# Columns and labels:
# [1] = test system: aromatase; assay: Inhibition of estradiol peak, in vivo aromatase inhibition model; set-up: species or system rat; conditions: female rats, 24 hours after one oral administration
# Protocol: One hundred IOPS Wistar female rats, weighing 180 to 200 g, were accommodated by four in stainless steel mesh cages. […] Vaginal smears were performed for each animal, each morning, in order to establish the different phases of cycle. […] Starting at 4.00 pm, animals received an oral administration of formulations. 24 hours later, samples of serum were collected and estradiol level were determined as previously described (Table 4).
# [2] = test system: steroid sulfatase; assay: Anti uterotrophic/anti steroid sulfatase activity in vivo; set-up: species or system rat
# Protocol: Wistar female rats were ovariectomized and left to rest for 4 weeks. Prior to treatment, the absence of cyclicity was checked by vaginal smears. Animals were supplemented with estrone sulfate (EIS) at 50 μg/kg/day s.c., alone or combined with oral administration of potential sulfatase inhibitors, at 1 mg/kg/day for 4 days. The uteri were removed, freed of adjacent tissue and wet weighed (Table 3).
# Estrone sulfatase activity is measured according to the method described by Purohit et al., with slight modifications. Briefly, uteri were thawed, weighed and homogenized. Aliquots of the supernatant were treated with dextran-coated charcoal and assayed for sulfatase. E1S activity is assessed after 30 min of incubation with 5 nM of ^3H-E1S and 20 μM of unlabelled E1S as substrate. Estrone sulfatase activity is expressed as pmol/h/mg protein and reported as percentage of inhibition vs E1S; for uterus weights, results are expressed as % of inhibition of the E1S induced stimulation
# [3] = biological target: T1, human aromatase (Homo sapiens, UniProt P11511); assay: Dual aromatase and steroid sulfatase activities in JEG-3 cells: aromatase readout; assay type: cell-based; conditions: footnote c: dual aromatase and sulfatase activity, nd: not detected, read-out: Aromatase activity IC50 (nM) ± S.E.M.
# T1 construct: The JEG-3 cell line, derived from a human placental choriocarcinoma, constitutively overexpresses human aromatase; endogenous in cells; host or cells: JEG-3 (human placental choriocarcinoma)
# T1 sequence (P11511 1-503): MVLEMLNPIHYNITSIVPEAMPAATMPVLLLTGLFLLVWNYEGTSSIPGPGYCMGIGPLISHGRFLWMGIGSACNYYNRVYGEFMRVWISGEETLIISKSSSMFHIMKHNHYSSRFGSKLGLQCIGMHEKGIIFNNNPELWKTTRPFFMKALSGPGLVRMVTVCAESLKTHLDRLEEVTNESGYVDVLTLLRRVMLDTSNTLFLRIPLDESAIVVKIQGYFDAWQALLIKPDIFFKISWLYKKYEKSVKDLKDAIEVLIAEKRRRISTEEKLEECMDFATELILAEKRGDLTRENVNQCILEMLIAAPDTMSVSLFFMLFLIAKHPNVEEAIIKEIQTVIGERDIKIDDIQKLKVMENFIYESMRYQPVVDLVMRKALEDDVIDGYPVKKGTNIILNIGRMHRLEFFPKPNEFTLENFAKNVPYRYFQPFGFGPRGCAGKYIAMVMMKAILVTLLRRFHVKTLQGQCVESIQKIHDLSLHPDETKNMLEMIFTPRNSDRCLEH
# Protocol: Assays were carried out with cells in logarithmic growth phase on 96-well microplates. 24 h before studies, cells were seeded in decomplemented fetal calf serum (dFCS) supplemented medium. The medium was removed 24 h later and cells were rinsed with PBS to eliminate any trace of dFCS. Then, ^3H-E1S was added in dFCS free medium, followed by test compounds at concentrations ranging from 10^−12 M to 10^−5 M. After 4 h of treatment, the medium was transferred into 96-deep-well microplates and centrifuged at 200×g for 10 min to pellet cells before toluene extraction. A fraction of the medium was used for toluene extraction in order to separate the conjugated substrate from non-conjugated products. The radioactivity in the toluene phase was measured by liquid scintillation counting. […] Finally, estrone sulfatase activity was expressed in pmoles of ^3H-E1+^3H-E2 formed/4 hours/mg DNA and estrone sulfatase inhibition as a percentage of control activity without inhibitor.
# In order to evaluate the inhibitory potency of DASI compounds in parallel on both human aromatase and steroid sulfatase activities, a new in vitro model was set up using JEG-3 cells. The experimental conditions of the steroid sulfatase model previously described was adopted with slight modifications: the presence of the two substrates ^3-HE1S and 1β-^3H-androstenedione into the medium and an incubation period of 2 hours. Results were expressed in pmoles of product formed (^3H-E1+^3H-E2 or ^3H2O)/2 hours/mg DNA (Table 1).
structure (smiles),measurement,setting,value
"Cl.N#Cc1ccc(N(Cc2ccc(OS(N)(=O)=O)c(Br)c2)n2ccnc2)cc1 [Ex 45, Sulfamic acid 2-bromo-4-{[N-(4-cyanophenyl)-N-(1H-imidazol-1yl)amino]methyl}phenyl ester, hydrochloride]",% inhibition (estradiol peak),[1],28%
same,inhibition of E1S (sulfatase) concluded from uterus weight inhibition,[2]; concluded from linear correlation between sulfatase inhibition and uterus weight inhibition (WO 2004/101545),> 90%
same,% inhibition (uterus weight),"[2]; ovariectomized Wistar female rats, E1S 50 μg/kg/day s.c., oral 1 mg/kg/day for 4 days, % of inhibition of the E1S induced stimulation",70%
same,IC50,[3],< 1 nM

# Reference: patent US8476455B2, “1-N-phenyl-amino-1h-imidazole derivatives and pharmaceutical compositions containing them” (Laboratoire Theramex, priority 2003, dated 2013)
